In US20260132152A1, “SOLID FORMS OF AN ORALLY-DELIVERED BETA-LACTAMASE INHIBITOR AND USES THEREOF” (Venatorx Pharmaceuticals, Inc., priority 2019, published 2026):
≈ marks a conversion by molar mass, not a printed value. Where two headings read alike, the source gives them in different places.

Experiments:
Format in all cases: physicochemical
[1] = Exposure to elevated RH (75%, 85%, 97%) at room temperature
Procedure: Samples of Compound 1-ethanolate Form A were exposed to elevated RH (75%, 85% and 97%) at room temperature for approximately 3 hours and 24 hours (Table 8).

[2] = Separate DVS analysis with stepped increase in relative humidity, 0% RH to 60% RH, 4 h per step, then XRPD
Procedure: A second set of DVS experiments were conducted using a stepped method from 0% RH to 60% RH with steps of 10% RH and four hours of equilibration at each humidity value. […] The samples were placed on an aluminum holder and allowed to equilibrate at 0% RH before starting the following predefined humidity program; hold for 4 h at 0% RH, increase humidity by a step of 10% RH, hold for 4 h. repeat the above two steps five times until a value of 60% RH has been reached. The samples were then analyzed for crystallinity using the second set of XRPD conditions.

[3] = Visual solubility estimates by aliquot addition at ambient temperature
Procedure: Visual solubility estimates for Compound 1-ethanolate Form A were determined in a variety of solvents and solvent mixtures using an aliquot addition method to aid in experimental design.

[4] = Solvent-mediated interconversion slurries with seeds of Form A and Form B; settings: slurries in 3% DCM in heptane and 5% EtOH in heptane, room temperature, ~2 weeks, XRPD
Procedure: Saturated solutions of Compound 1-ethanolate were prepared in 3% DCM in heptane and 5% EtOH in heptane.
Approximately equal amounts of Form A, and Form B (containing a minor amount of Form A) were added to the filtered saturated solutions, and the suspensions were slurried at room temperature for ˜2 weeks, and the isolated solids were observed by polarized light microscopy (PLM) and analyzed by XRPD.

[5] = Dynamic vapor sorption (DVS) analysis, 5% RH to 95% RH and back to 5% RH at 10% RH increments
Procedure: Moisture sorption/desorption data were collected on a VTI SGA-100 Vapor Sorption Analyzer. NaCl and PVP were used as calibration standards. Samples were not dried prior to analysis. Sorption and desorption data were collected over a range from 5% to 95% RH at 10% RH increments under a nitrogen purge (RH=relative humidity). The equilibrium criterion used for analysis was less than 0.0100% weight change in 5 minutes with a maximum equilibration time of 3 hours. Data were not corrected for the initial moisture content of the samples.
DVS analysis of Compound 1-ethanolate Form A was conducted from 5% relative humidity (RH) to 95% RH and back to 5% RH at 10% RH increments (FIG. 7). […] A loss of 1.8 wt % was observed between 55% RH and 65% RH possibly due to water displacing ethanol. After 65% RH, the sample gained 3.8 wt % between 65% RH and 95% RH. […] Weight loss (˜7.6 wt %) was observed between 95% RH and 5% RH (i.e., desorption). After DVS analysis, it was noted that the sample had deliquesced.
DVS analysis of Compound 1-ethanolate Form B (with minor Form A) was conducted from 5% RH to 95% RH and back to 5% RH at 10% RH increments (FIG. 12). The DVS isotherm of Form B is qualitatively similar to that of Form A. Form B lost 0.2 wt % upon equilibration at ˜5% RH. […] A weight loss of 1.1% was observed between 45% RH and 55% RH, possibly due to the displacement of the ethanol with water. After 55% RH, the sample gained 3.3 wt % between 55% RH and 95% RH. […] Weight loss (˜5.8 w1%) was observed during desorption from 95% RH to 5% RH.

In the case of CCOB1Oc2c(cccc2C(=O)OCOC(=O)C(CC)CC)C[C@@H]1NC(=O)CC [Compound 1-ethanolate Form A, ((2-ethylbutanoyl)oxy)methyl (R)-2-ethoxy-3-propionamido-3,4-dihydro-2H-benzo[e][1,2]oxaborinine-8-carboxylate], the “Observation on exposure to elevated RH” value ([1]; 75% RH, after 3 hours) is reported as “no deliquescence”, the “Observation on exposure to elevated RH” value ([1]; 75% RH, after 24 hours) is reported as “began deliquescing” and the “Observation on exposure to elevated RH” value ([1]; 85% RH, after 3 hours) is reported as “appeared wet with solids present”. For the same molecule, the “Observation on exposure to elevated RH” value ([1]; 85% RH, after 24 hours) was “deliquesced”, the “Observation on exposure to elevated RH” value ([1]; 97% RH, after 3 hours) was “deliquescence was observed” and the “Observation on exposure to elevated RH” value ([1]; 97% RH, after 24 hours) was “deliquesced”. The “Mass change in stepped DVS” value ([2]; at humidities higher than 40% RH, loss of ethanol from the boronate ester complex) was “a decrease in mass was observed”, the “Mass increase in stepped DVS” value ([2]; from 0% RH to 40% RH) was 0.3 wt, -% and the “Retention of crystal structure (XRPD after stepped DVS)” value ([2]; up to 60% r.h.) was “retained its predominant crystal structure for at least four hours”. For the same molecule, the solubility ([3]; Cyclohexane) was <1 mg/mL, the solubility ([3]; Heptane) was <1 mg/mL and the solubility ([3]; organic solvent or mixture, thermodynamic from solid, ACN, read-out: Solubility) was > 66 mg/mL. It also gave a solubility ([3]; organic solvent or mixture, thermodynamic from solid, Acetone, read-out: Solubility) of 34 mg/mL (≈ 81.1 mM), a solubility ([3]; organic solvent or mixture, thermodynamic from solid, Anisole, read-out: Solubility) of 35 mg/mL (≈ 83.5 mM) and a solubility ([3]; organic solvent or mixture, thermodynamic from solid, Chloroform, read-out: Solubility) of 36 mg/mL (≈ 85.9 mM). The solubility ([3]; organic solvent or mixture, thermodynamic from solid, Cyclohexane, read-out: Solubility) was < 1 mg/mL, the solubility ([3]; organic solvent or mixture, thermodynamic from solid, Cyclohexane:EtOAc 3:1 by volume, read-out: Solubility) was 4 mg/mL (≈ 9.54 mM) and the solubility ([3]; organic solvent or mixture, thermodynamic from solid, Cyclohexane:EtOH 90:10 by volume, read-out: Solubility) was 17 mg/mL (≈ 40.5 mM). For the same molecule, the solubility ([3]; organic solvent or mixture, thermodynamic from solid, DCM, read-out: Solubility) was 34 mg/mL (≈ 81.1 mM), the solubility ([3]; organic solvent or mixture, thermodynamic from solid, DMF, read-out: Solubility) was > 63 mg/mL and the solubility ([3]; organic solvent or mixture, thermodynamic from solid, DMSO, read-out: Solubility) was > 71 mg/mL. The solubility ([3]; organic solvent or mixture, thermodynamic from solid, Diethyl Ether, read-out: Solubility) was 9 mg/mL (≈ 21.5 mM), the solubility ([3]; organic solvent or mixture, thermodynamic from solid, EtOAc, read-out: Solubility) was > 68 mg/mL and the solubility ([3]; organic solvent or mixture, thermodynamic from solid, EtOH, read-out: Solubility) was > 68 mg/mL. The solubility ([3]; organic solvent or mixture, thermodynamic from solid, Heptane, read-out: Solubility) was < 1 mg/mL, the solubility ([3]; organic solvent or mixture, thermodynamic from solid, Heptane:MEK 2:1 by volume, read-out: Solubility) was 22 mg/mL (≈ 52.5 mM) and the solubility ([3]; organic solvent or mixture, thermodynamic from solid, IPA, read-out: Solubility) was 34 mg/mL (≈ 81.1 mM). The solubility ([3]; organic solvent or mixture, thermodynamic from solid, IPOAc, read-out: Solubility) was > 66 mg/mL, the solubility ([3]; organic solvent or mixture, thermodynamic from solid, MEK, read-out: Solubility) was 37 mg/mL (≈ 88.2 mM) and the solubility ([3]; organic solvent or mixture, thermodynamic from solid, MTBE, read-out: Solubility) was 22 mg/mL (≈ 52.5 mM). The solubility ([3]; organic solvent or mixture, thermodynamic from solid, Nitromethane, read-out: Solubility) was > 68 mg/mL, the solubility ([3]; organic solvent or mixture, thermodynamic from solid, TFE, read-out: Solubility) was > 66 mg/mL and the solubility ([3]; organic solvent or mixture, thermodynamic from solid, THF, read-out: Solubility) was > 64 mg/mL. For the same molecule, the solubility ([3]; organic solvent or mixture, thermodynamic from solid, Toluene, read-out: Solubility) was 33 mg/mL (≈ 78.7 mM), the solubility ([3]; organic solvent or mixture, thermodynamic from solid, Xylene, read-out: Solubility) was 17 mg/mL (≈ 40.5 mM) and the Thermodynamically stable polymorph [4] was “the stable form at room temperature”. The Thermodynamically stable polymorph ([4]; listed as Polymorph form A) was “thermodynamically stable”, the “State of sample after DVS analysis” value ([5]; after 5-95-5% RH cycle) was “deliquesced” and the “Weight loss in DVS (desorption)” value ([5]; between 95% RH and 5% RH) was ~7.6 wt %. It also gave a Weight % chg ([5]; desorption, elapsed 731.2 min, sample RH 85.19%, 25.19 °C) of 0.633%, a Weight % chg ([5]; desorption, elapsed 918.9 min, sample RH 74.98%, 25.19 °C) of −0.694% and a Weight % chg ([5]; desorption, elapsed 1106.5 min, sample RH 65.14%, 25.19 °C) of −1.716%. The Weight % chg ([5]; desorption, elapsed 1296.4 min, sample RH 54.99%, 25.19 °C) was −2.592%, the Weight % chg ([5]; desorption, elapsed 1483.9 min, sample RH 45.11%, 25.19 °C) was −3.308% and the Weight % chg ([5]; desorption, elapsed 1671.4 min, sample RH 35.03%, 25.19 °C) was −3.916%. For the same molecule, the Weight % chg ([5]; desorption, elapsed 1859.0 min, sample RH 25.06%, 25.19 °C) was −4.432%, the Weight % chg ([5]; desorption, elapsed 2044.7 min, sample RH 14.87%, 25.19 °C) was −4.883% and the Weight % chg ([5]; desorption, elapsed 2228.6 min, sample RH 5.67%, 25.19 °C) was −5.275%. For the same molecule, the Hygroscopicity ([5]; from 5-55% RH) was “non-hygroscopic”, the “Weight gain in DVS” value ([5]; sorption, between 5% RH and 55% RH) was ~0.3 wt % and the “Weight loss in DVS” value ([5]; sorption, between 55% RH and 65% RH, possibly water displacing ethanol) was 1.8 wt %. The “Weight gain in DVS” value ([5]; sorption, between 65% RH and 95% RH) was 3.8 wt %, the Weight % chg ([5]; sorption, elapsed 21.1 min, sample RH 5.15%, 25.19 °C) was −0.043% and the Weight % chg ([5]; sorption, elapsed 39.7 min, sample RH 14.86%, 25.19 °C) was −0.003%. For the same molecule, the Weight % chg ([5]; sorption, elapsed 51.8 min, sample RH 24.90%, 25.20 °C) was 0.051%, the Weight % chg ([5]; sorption, elapsed 64.8 min, sample RH 34.83%, 25.19 °C) was 0.120% and the Weight % chg ([5]; sorption, elapsed 78.3 min, sample RH 44.87%, 25.19 °C) was 0.214%. The Weight % chg ([5]; sorption, elapsed 91.2 min, sample RH 54.86%, 25.18 °C) was 0.316%, the Weight % chg ([5]; sorption, elapsed 281.1 min, sample RH 65.03%, 25.18 °C) was −1.494% and the Weight % chg ([5]; sorption, elapsed 294.7 min, sample RH 74.65%, 25.20 °C) was −1.170%. The Weight % chg ([5]; sorption, elapsed 356.0 min, sample RH 84.85%, 25.19 °C) was 0.451%, the Weight % chg ([5]; sorption, elapsed 543.7 min, sample RH 94.83%, 25.19 °C) was 2.311% and the Weight % chg ([5]; start, elapsed 0.1 min, sample RH 0.99%, 25.18 °C) was 0.000%.
